Results reported in patent US10952940B2, “Reagents and methods for mineralization of tooth enamel” (UNIVERSITY OF WASHINGTON, priority 2016, dated 2021).

Assay: Vicker's microhardness of mineralized tooth surface
Design: species or system human
Conditions: 10 kg applied load, on the surface, n ≥ 20
Procedure: In addition to nanoindenation measurements, microhardness was also performed on the surface to quantitatively assess the mechanical properties of the mineral layers with larger areas and volumes including the underlying enamel as a composite. Vicker's microhardness was performed on at room temperature using Vicker's indenter on a Wilson Hardness Tukon 1202 microhardness tester at 10 kg applied load (Illinois Tool Works, Lake Bluff, Ill.). At least 20 measurements per group were recorded for obtaining an average and statistical analysis.
Microhardness and nanoindentation differ in both loading range and measurement method as shown in the schematic in FIG. 14 and, for these reasons, both were used in the present work to assess the mechanical durability of the remineralized layers on artificially formed lesions on intact human teeth. In the case of microhardness (Vickers indenter), the measurement was a static one in that the load was applied, released and hardness was obtained by measuring the post-indentation projected area of the indented region (foot print). This method therefore provides information about only the plastically deformed response (plastic deformation) of the material. Furthermore the load applied in this study was 10 kg, lowest allowable by the instrument.

## SYENSHSQAINVDRT [shADP5, 15-amino acid long amelogenin-derived peptide, shortened human ADP5]
Listed as Group 6 (shADP5)
  Hardness (Vicker's microhardness): 140.6 +/− 11.3 HV10, MPa
Listed as group 6
  Hardness (Vicker's microhardness): 140.6+11.3 HV10, MPa
